# Test results: US20060286132A1, “Use of stellate ganglion block for the treatment of sexual dysfunction” (priority 2005, published 2006)
# What was measured:
# [1] = tested on: sexual dysfunction, including anorgasmia; assay: Sexual function after stellate ganglion block in a person with sexual dysfunction including anorgasmia; format: in vivo
# [2] = tested on: severe menopausal hot flashes; assay: Self-reported hot flashes pre and post stellate ganglion block in women with severe menopausal hot flashes; format: in vivo
# Source text: A stellate ganglion block is illustratively performed by placing the patient in the supine position (on the back) with the neck slightly extended and the jaw open. While the patient is usually conscious for the procedure, a medication such as Versed (midazolam hydrochloride), fentanyl, or other sedative is often administered, to relax the patient. A local anesthetic is also usually administered, to numb the skin and tissue down to the ganglion nerve. A needle is inserted toward the stellate ganglion. […] The needle 20 is shown inserted adjacent to the stellate ganglion 10. In the illustrative block, a contrast solution is injected through needle 20 via syringe 22, and the needle position is confirmed by fluoroscopy or other means, as are known in the art.
# The anesthetic 30 is then delivered next to stellate ganglion 10 by injection via needle 20. Illustratively, 5 cc 0.375% Marcaine® (bupivacaine) may be used. However, it is understood that other anesthetics, illustratively lidocaine, morphine or other opioids, clonidine, botox, or tetracine, or a combination of anesthetic and epinephrine, may be used and that the dosage range may vary depending on the particular anesthetic and other factors, as are known in the art. Needle 20 is removed, and the patient is optionally placed in the sitting position to facilitate the spread of anesthesia inferiorly to the stellate ganglion. Illustratively, longer acting anesthetics such as bupivacaine are used, but other anesthetics may be used, as are known in the art. The stellate ganglion block may also be performed by radiofrequency lesioning, as is known in the art.
# Six women suffering from severe menopausal hot flashes each received a standard stellate ganglion block (0.375% Marcaine, 5 cc), as described above. Hot flashes were assessed by self-reporting pre and post stellate ganglion block.
compound,measurement,setting,value
"CCCCN1CCCCC1C(=O)Nc1c(C)cccc1C (stereo not drawn) [Marcaine, bupivacaine]",sexual function with additional stellate ganglion blocks,[1]; additional blocks over the course of 3 years,maintain normal sexual function
same,sexual function following stellate ganglion block,"[1]; person, block in accordance with Example 1",return of normal sexual function
same,"effect on sexual dysfunction, block administered through C7",[1]; variation in treatment: administration of the stellate ganglion block through C7,ineffective
same,"success of initial stellate ganglion block, as evidenced by a positive Homer's syndrome and anhydrosis","[2]; 0.375% Marcaine, 5 cc, six women, initial block",successful in all six subjects
same,duration of complete alleviation of hot flashes,"[2]; initial stellate ganglion block, 0.375% Marcaine, 5 cc, six women",2-5 weeks
same,additional asymptomatic period of relief from hot flashes,"[2]; second stellate ganglion block, after mild hot flashes returned",4-18 weeks
